Assay results: US11987604B2, “Fusion-proteins based on human ferritin and protease-cleavable peptides and their use as chemotherapeutics carriers” (THENA BIOTECH S.R.L., priority 2017, dated 2024)

Columns and labels:
Assay type in all cases: cell-based
[1] = tested on: pancreatic PaCa 44 cancer cells; test: XTT viability assay, PaCa 44; conditions: Homo sapiens, Paca44 cells, read-out: killing efficacy (IC50)
[2] = tested on: pancreatic Capan 1 cancer cells; test: XTT viability assay, Capan 1; conditions: Homo sapiens, Capan 1 cells, read-out: killing efficacy (IC50)
[3] = tested on: pancreatic MiaPaCa2 cancer cells; test: XTT viability assay, MiaPaCa2; conditions: Homo sapiens, MIA PaCa-2, read-out: killing efficacy (IC50)
SW480 colon cancer cells = test: Cell internalization and localization by confocal microscopy, SW480; conditions: SW480, 3 h incubation at 37° C., 20 μM MIT
Experimental: (§1) Left panels: Lamin A/C staining (nuclear membrane marker, green); central panels: MIT (blue); right panels: merge. The white bar indicates a 10 μm length.
(§2) MIT concentration is 20 μM in all experiments. The white bar indicates a 20 μm length.
(§3) To determine whether MIT containing HFt based constructs undergo cell surface binding and/or internalization, they were incubated with colon cancer cells SW480 and SW620 at 37° C. for 1 or 3 h and MIT associated fluorescence was visualized by confocal microscopy. […] In particular, MIT localizes in intranuclear structures assumed to be nucleoli on the basis of size, position and shape, as previously proposed for colon carcinoma and breast cancer cells.

SW620 colon cancer cells = test: Cell internalization and localization by confocal microscopy, SW620; conditions: SW620, 3 h incubation at 37° C., 20 μM MIT
Experimental: as §1, §2, §3

SMILES | IC50 [1] | IC50 [2] | IC50 [3] | MIT localization in cells (SW480 colon cancer cells) | MIT localization in cells (SW620 colon cancer cells)
Nc1ccn([C@@H]2O[C@H](CO)[C@@H](O)C2(F)F)c(=O)n1 [Gemcitabine] | 6750 nM | 2800 nM | 1150 nM |  | 
O=C1c2c(O)ccc(O)c2C(=O)c2c(NCCNCCO)ccc(NCCNCCO)c21 [MIT, mitoxantrone] |  |  |  | partly present also in the cytoplasm | partly present also in the cytoplasm
